Measured values: publication PMC11574061, “Experimental and computational studies on possibility of using glucose diazacrown cryptand as a carrier for anticancer drugs busulfan and lomustine” (Scientific Reports, 2024)
Converted amounts (≈) assume the structure as drawn. Read-outs that look alike come from different tables or passages of the source.

Legend:
[1] = Approximate water solubility, stepwise addition of water; type: physicochemical; settings: thermodynamic from solid; in water; estimated approximately, 1 mg substance, water added in 0.1 ml portions until clear
Procedure: The complexes were prepared according to the procedure described in a previous publication for the complex of another cryptand with BSF[7]. A solution of 2.5 mg (0.01 mmol) BSF in 0.25 ml DMSO was added under argon to a solution of 9.8 mg (0.01 mmol) cryptand 9 (L1) in 12.5 ml water at room temperature. […] The water solubility of the pure cryptand L1, both drugs and their complexes was estimated approximately using a simple method. For each compound separately, 1 mg of the substance was placed in a vial and water was added to it in portions of 0.1 ml. After each addition, the mixture was stirred for 10 min, and the clarity of the solution was checked with a magnifying glass. Stirring was stopped when the solution became completely clear.

[2] = test system: normal colon fibroblasts CCD-18Co; test: MTT cytotoxicity assay, CCD-18Co; type: cell-based, human; settings: 72 h
Procedure: (§1) Breast cancer cells MCF-7, colon cancer cells HT-29, normal breast epithelial cells MCF-10 A and normal colon fibroblasts CCD-18Co were used as a cell model for testing the effect of compounds on the viability of cells. The cells were seeded in Dulbecco’s Modified Eagle Medium (DMEM) medium in 96-well plates and incubated for 24 h in a 5% CO2 atmosphere at 37 °C. MCF-10 A cells were grown in a medium supplemented with 0.4% bovine pituitary extract (BPE), 3 ng ml^− 1 hEGF, 5 µg ml^− 1 insulin, 0.5 µg ml^− 1 hydrocortisone and 100ng mL^− 1 cholera toxin. After that, cells were treated with different concentrations: 2.5, 10, 25, 50, 100, and 200 µM, of compounds for 72 h. Busulfan and lomustine were freshly dissolved in DMSO immediately before cell treatment. The solution of other compounds (lyophilized) were prepared in 30% DMSO. Then, a series of dilutions were prepared. The final concentrations of drugs, cryptand and complexes were in range 2.5–200 µM. The final concentration of DMSO diluted in culture medium was 0.2% for all experiments. The controls (without drugs) were treated with 0.2% DMSO. In this concentration DMSO was not cytotoxic for cells which was confirmed by preliminary experiments. The viability of cells treated with the tested compounds was assessed by measuring the ability of live cells to metabolize 3-(4,5-dimethylthiazolo-2-yl)-2,5-diphenyl tetrazolium bromide (MTT) to formazan, using a standard protocol. Briefly, after incubation with compounds, the medium of each well was discarded, cells were washed with PBS, and then 100 µL of fresh media with 10 µL MTT solution (5 mg mL^− 1 in PBS) was added to each well. After 4 h incubation at 37 °C, the produced formazan was solubilized by the addition of DMSO, and the absorbance of each well was determined at 570 nm using an ELISA reader. The results were expressed as the mean of at least four replicates as a percentage of control (taken as 100% - cells).

[3] = test system: breast cancer cells MCF-7; test: MTT cytotoxicity assay, MCF-7; type: cell-based, human
Procedure: as §1

[4] = test system: normal breast epithelial cells MCF-10 A; test: MTT cytotoxicity assay, MCF-10 A; type: cell-based, human; settings: 72 h
Procedure: as §1

colon cancer cells HT-29 = test: MTT cytotoxicity assay, HT-29; type: cell-based, human
Procedure: as §1

[5] = CCD-18Co normal colon cells, MTT, 2.5–200 µM, mean ± SD, – = IC50 not reached in the range used
[6] = Homo sapiens, CCD-18Co, read-out: IC50
[7] = Homo sapiens, MCF7, 72 h, read-out: IC50
[8] = MCF-7 breast cancer cells, 72 h, MTT, 2.5–200 µM, mean ± SD, – = IC50 not reached in the range used
[9] = Homo sapiens, MCF-10A, read-out: IC50
[10] = MCF-10 A normal breast cells, MTT, 2.5–200 µM, mean ± SD, – = IC50 not reached in the range used
[11] = HT-29 colon cancer cells, 72 h, MTT, 2.5–200 µM, mean ± SD, – = IC50 not reached in the range used
[12] = Homo sapiens, HT-29, 72 h, read-out: IC50

| SMILES | solubility [1] | IC50 [2, 5] | IC50 [2, 6] | IC50 [3, 7] | IC50 [3, 8] | IC50 [4, 9] | IC50 [4, 10] | IC50 (colon cancer cells HT-29; [11]) | IC50 (colon cancer cells HT-29; [12]) |
| --- | --- | --- | --- | --- | --- | --- | --- | --- | --- |
| CS(=O)(=O)OCCCCOS(C)(=O)=O [BSF, butane-1,4-diyl dimethanesulfonate] | 130 µg/mL | not achieved | > 200 µM | > 200 µM | not achieved | > 200 µM | not achieved | not achieved | > 200 µM |
| O=NN(CCCl)C(=O)NC1CCCCC1 [CCNU, 1-(2-chloroethyl)-3-cyclohexyl-1-nitrosourea] | 50 µg/mL (≈ 0.214 mM) | – | 56.2 ± 7.8 µM | 8.41 ± 1.6 µM | – | 48.9 ± 5.4 µM | – | – | 8.91 ± 1.5 µM |
| O=C1NCC2OC(NC(=O)N3CCOCCOCCN(CCOCCOCC3)C(=O)NC3OC(CNC(=O)N4CCOCCOCCN1CCOCCOCC4)C(O)C(O)C3O)C(O)C(O)C2O (stereo not shown) [L1] | 20000 µg/mL (≈ 20.3 mM) | had not been reached | – | – | had not been reached | – | had not been reached | had not been reached | – |
